Assay results published in patent US9828375B2, “4-position substituted pyrazolopyrimidine derivative, and use thereof in drug preparation” (Guangxi Wuzhou Pharmaceuticals (Group) Co., Ltd., priority 2012, dated 2017).

Assays:
Assay type in all cases: biochemical
[1] = target: c-RAF (Homo sapiens, UniProt P04049); assay: Kinase inhibition activity test, isotope labeling: c-RAF; settings: ATP 45 μM; read-out: c-RAF IC50 value (inhibitory activity value)
Description: (§1) The purpose of this experiment was to test the inhibitory activity of the compound of the invention for in vitro kinase with the isotope labeling method (the γ phosphate group on ATP was labeled). In this experiment, the in vitro activity inhibition of such kinases as FLT3, VEGFR2, FLT1, FLT4, RET, c-RAF, B-RAF, c-KIT, PDGFα, PDGFβ, FGFR2, FGFR1, EphA2, EphB2, SRC, ABL, ALK and Met was tested respectively. Staurosporine was reference molecule (or referred to as positive control). The kinase inhibition activity of the test compound was expressed by half-inhibitory concentration (IC50) or the kinase activity inhibition rate of the test compound at a concentration of 10 μM. The IC50 value could be obtained by calculating the kinase activity inhibition rate of the test compound at different concentrations.
(§2) 20 mM 3-(N-morpholinyl)propanesulfonic acid (MOPS); 1 mM ethylenediaminetetraacetic acid (EDTA), 0.01% Brij 35 (Brij-35), 5% glycerol, 0.1% mercaptoethanol, 1 mg/mL bovine serum albumin (BSA), 10 mM manganous dichloride solution (MnCl2), 0.1 mg/mL glutamic acid/tyrosine (4:1) polypeptide (poly(Glu, Tyr)4:1), 50 μM EAIYAAPFAKKK (substrate of FLT3), 0.33 mg/mL myelin basic protein (substrate of VEGFR2), 250 μM KKKSPGEYVNIEFG (substrate of FLT1(h)), 500 μM GGEEEEYFELVKKKK (substrate of FLT4(h)), 250 μM KKKSPGEYVNIEFG (substrate of RET), 0.66 mg/mL myelin basic protein (substrate of C-RAF), 250 μM GGMEDIYFEFMGGKKK (substrate of c-Kit), 250 μM GGMEDIYFEFMGGKKK (substrate of PDGFα), 250 μM KKKSPGEYVNIEFG (substrate of FGFR1), […] GGEEEEYFELVKKKK (substrate of SRC), 50 μM EAIYAAPFAKKK (substrate of ABL), 250 μM KKKSPGEYVNIEFG (substrate of ALK), 250 μM KKKSPGEYVNIEFG (substrate of Met(h)), 10 mM magnesium acetate and γ-^33 P-ATP solution, stop buffer (3% phosphate buffer), washing buffer (75 mM phosphate solution), methanol, Filtermat A membrane, FLT3, VEGFR2, FLT3, VEGFR2, FLT1, FLT4, RET, c-RAF, B-RAF, c-KIT, PDGFRα, PDGFRβ, FGFR2, FGFR1, EphA2, EphB2, SRC, ABL, ALK, Met and other kinases, and the test compounds.
(§3) Buffers (8 mM MOPS with pH value of 7.0, 0.2 mM EDTA and 10 mM MnCl2), (5-10 mU) kinases to be tested (FLT3, VEGFR2, FLT1, FLT4, RET, c-RAF, B-RAF, c-KIT, PDGFRα, PDGFRβ, FGFR2, FGFR1, EphA2, EphB2, SRC, ABL, ALK and Met), substrates of kinases to be tested (refer to experimental materials), 10 mM magnesium acetate and γ-^33 P-ATP solution, and test compounds at different concentrations were added to a reaction tube orderly. […] Reaction was terminated with 5 μL 3% phosphate buffer finally, and 10 μL reaction solution was titrated to the Filtermat A membrane; solution was washed for 3 times with 75 mM phosphate solution with each time lasting 5 minutes, and then washed once with methanol. […]

[2] = target: PDGFRβ (Homo sapiens, UniProt P09619); assay: Kinase inhibition activity test, isotope labeling: PDGFRβ; settings: ATP 200 μM; read-out: PDGFRβ IC50 value (inhibitory activity value)
Sequence of PDGFRβ (P09619 33-1106): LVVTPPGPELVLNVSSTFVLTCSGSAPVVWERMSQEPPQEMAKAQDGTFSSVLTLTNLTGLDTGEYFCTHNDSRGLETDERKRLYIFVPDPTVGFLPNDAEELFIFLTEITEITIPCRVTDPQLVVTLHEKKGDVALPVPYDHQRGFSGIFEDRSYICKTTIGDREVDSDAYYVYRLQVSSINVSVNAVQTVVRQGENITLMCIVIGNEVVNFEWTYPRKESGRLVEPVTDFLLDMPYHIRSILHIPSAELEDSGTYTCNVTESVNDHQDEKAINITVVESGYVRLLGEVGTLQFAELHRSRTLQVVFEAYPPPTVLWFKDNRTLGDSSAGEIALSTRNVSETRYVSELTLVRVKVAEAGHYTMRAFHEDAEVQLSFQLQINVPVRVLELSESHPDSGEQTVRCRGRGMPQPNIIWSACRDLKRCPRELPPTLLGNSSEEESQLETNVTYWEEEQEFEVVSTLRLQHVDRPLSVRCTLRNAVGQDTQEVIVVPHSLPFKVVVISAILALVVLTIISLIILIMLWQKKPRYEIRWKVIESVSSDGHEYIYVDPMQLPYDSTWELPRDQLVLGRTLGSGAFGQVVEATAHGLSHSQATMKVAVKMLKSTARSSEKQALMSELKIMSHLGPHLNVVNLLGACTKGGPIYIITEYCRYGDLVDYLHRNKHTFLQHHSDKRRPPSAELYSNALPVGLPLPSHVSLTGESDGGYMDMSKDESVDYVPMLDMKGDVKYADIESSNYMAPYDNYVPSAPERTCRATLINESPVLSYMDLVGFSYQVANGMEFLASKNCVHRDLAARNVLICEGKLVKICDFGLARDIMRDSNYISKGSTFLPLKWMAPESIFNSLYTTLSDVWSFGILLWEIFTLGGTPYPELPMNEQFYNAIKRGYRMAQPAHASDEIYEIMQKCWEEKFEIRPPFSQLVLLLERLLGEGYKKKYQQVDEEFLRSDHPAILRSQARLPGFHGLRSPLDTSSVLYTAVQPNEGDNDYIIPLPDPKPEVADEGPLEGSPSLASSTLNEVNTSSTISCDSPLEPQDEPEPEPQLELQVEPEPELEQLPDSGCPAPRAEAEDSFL
Description: as §1, §2, §3

[3] = target: FLT1 (Homo sapiens, UniProt P17948); assay: Kinase inhibition activity test, isotope labeling: FLT1; settings: ATP 200 μM; read-out: FLT1 IC50 value (inhibitory activity value)
Sequence of FLT1 (P17948 27-1338): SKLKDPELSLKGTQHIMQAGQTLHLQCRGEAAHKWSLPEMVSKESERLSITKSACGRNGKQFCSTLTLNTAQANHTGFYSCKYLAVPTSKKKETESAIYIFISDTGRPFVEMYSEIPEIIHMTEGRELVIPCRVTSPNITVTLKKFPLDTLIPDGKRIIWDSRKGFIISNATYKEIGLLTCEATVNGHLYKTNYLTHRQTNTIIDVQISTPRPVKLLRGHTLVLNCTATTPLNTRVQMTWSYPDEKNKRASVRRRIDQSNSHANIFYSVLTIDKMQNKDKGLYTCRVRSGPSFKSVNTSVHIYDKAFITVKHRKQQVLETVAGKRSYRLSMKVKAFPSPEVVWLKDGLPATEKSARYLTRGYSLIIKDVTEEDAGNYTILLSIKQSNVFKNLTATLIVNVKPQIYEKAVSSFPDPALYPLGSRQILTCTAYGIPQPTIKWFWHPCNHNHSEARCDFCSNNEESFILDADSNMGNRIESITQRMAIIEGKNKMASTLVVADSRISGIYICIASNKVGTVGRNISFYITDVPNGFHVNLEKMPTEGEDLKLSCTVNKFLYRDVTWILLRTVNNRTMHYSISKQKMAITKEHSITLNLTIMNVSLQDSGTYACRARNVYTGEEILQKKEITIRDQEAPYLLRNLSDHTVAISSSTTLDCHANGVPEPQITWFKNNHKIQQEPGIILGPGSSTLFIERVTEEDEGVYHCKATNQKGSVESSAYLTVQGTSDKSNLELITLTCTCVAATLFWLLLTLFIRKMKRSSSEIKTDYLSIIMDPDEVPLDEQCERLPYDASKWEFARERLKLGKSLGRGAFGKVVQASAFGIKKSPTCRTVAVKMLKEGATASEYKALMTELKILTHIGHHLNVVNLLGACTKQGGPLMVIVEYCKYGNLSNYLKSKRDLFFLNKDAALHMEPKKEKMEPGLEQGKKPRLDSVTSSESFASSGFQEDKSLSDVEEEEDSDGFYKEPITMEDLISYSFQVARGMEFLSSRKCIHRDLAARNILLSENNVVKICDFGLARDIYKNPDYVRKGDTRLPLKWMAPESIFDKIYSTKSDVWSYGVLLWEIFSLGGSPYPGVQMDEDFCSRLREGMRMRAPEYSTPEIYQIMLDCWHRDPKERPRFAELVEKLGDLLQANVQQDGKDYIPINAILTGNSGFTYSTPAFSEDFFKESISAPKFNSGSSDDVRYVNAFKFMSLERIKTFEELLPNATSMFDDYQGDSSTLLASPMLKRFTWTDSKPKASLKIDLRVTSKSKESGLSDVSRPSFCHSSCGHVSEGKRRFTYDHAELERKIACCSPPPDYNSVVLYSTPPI
Description: as §1, §2, §3

[4] = target: EphA2 (Homo sapiens, UniProt P29317); assay: Kinase inhibition activity test, isotope labeling: EphA2; settings: ATP 155 μM; read-out: EphA2 IC50 value (inhibitory activity value)
Sequence of EphA2 (P29317 24-976): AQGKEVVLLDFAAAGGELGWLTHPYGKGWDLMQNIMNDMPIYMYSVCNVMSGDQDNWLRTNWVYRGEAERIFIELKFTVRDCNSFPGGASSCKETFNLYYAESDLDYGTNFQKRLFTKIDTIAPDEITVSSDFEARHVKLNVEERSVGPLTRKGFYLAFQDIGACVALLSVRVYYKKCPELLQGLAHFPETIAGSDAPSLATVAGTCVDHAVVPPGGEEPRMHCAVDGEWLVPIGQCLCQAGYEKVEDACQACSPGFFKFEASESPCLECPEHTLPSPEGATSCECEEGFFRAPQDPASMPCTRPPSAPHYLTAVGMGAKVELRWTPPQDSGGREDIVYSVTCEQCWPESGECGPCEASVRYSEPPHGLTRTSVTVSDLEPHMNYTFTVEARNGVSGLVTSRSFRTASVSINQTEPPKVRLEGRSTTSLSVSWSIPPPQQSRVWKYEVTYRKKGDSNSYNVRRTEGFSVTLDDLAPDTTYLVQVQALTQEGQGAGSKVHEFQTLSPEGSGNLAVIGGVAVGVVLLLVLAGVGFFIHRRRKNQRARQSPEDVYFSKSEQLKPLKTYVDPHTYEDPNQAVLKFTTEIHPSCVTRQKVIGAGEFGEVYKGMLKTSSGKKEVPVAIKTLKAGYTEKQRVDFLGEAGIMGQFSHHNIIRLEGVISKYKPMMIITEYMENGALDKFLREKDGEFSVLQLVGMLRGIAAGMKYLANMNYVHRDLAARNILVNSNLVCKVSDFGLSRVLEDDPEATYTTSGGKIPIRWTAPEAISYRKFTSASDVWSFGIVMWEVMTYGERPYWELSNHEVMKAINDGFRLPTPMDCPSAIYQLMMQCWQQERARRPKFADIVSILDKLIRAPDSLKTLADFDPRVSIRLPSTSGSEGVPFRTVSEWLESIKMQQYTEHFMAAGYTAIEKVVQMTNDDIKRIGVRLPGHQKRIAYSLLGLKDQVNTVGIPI
Description: as §1, §2, §3

[5] = target: T1, EphB2 (Homo sapiens, UniProt P29323); assay: Kinase inhibition activity test, isotope labeling: EphB2; settings: ATP 10 μM; read-out: EphB2 IC50 value (inhibitory activity value)
T1 sequence (P29323 19-1055): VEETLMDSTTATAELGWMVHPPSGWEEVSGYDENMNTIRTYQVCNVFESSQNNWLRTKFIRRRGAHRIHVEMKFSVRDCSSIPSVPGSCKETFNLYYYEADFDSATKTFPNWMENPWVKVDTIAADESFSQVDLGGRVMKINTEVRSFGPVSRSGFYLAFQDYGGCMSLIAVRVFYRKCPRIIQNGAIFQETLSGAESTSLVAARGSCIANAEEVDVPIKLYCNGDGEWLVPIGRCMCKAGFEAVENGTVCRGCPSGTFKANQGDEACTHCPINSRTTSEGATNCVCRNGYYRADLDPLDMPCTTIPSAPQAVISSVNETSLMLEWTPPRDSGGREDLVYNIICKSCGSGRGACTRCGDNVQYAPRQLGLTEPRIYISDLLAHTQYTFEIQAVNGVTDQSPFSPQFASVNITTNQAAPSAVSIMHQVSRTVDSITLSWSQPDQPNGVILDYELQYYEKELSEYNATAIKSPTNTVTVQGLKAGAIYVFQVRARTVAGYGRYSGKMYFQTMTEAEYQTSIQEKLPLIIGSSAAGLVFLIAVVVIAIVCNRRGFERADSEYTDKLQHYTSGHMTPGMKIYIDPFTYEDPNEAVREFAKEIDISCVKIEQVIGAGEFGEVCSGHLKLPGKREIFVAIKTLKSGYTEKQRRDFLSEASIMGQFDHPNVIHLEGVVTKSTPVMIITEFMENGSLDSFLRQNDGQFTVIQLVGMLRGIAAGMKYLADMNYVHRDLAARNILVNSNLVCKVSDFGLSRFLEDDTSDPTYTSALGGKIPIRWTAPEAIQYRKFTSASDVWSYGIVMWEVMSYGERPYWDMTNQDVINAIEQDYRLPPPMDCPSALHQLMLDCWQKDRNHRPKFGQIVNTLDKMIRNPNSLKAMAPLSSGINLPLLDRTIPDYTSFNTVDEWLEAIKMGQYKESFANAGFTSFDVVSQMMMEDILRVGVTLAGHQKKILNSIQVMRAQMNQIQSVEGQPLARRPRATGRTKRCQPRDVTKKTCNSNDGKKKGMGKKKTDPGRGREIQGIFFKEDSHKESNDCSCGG
Description: as §1, §2, §3

[6] = target: SRC (Homo sapiens, UniProt P12931); assay: Kinase inhibition activity test, isotope labeling: SRC; settings: ATP 45 μM; read-out: SRC IC50 value (inhibitory activity value)
Sequence of SRC (P12931 whole entry): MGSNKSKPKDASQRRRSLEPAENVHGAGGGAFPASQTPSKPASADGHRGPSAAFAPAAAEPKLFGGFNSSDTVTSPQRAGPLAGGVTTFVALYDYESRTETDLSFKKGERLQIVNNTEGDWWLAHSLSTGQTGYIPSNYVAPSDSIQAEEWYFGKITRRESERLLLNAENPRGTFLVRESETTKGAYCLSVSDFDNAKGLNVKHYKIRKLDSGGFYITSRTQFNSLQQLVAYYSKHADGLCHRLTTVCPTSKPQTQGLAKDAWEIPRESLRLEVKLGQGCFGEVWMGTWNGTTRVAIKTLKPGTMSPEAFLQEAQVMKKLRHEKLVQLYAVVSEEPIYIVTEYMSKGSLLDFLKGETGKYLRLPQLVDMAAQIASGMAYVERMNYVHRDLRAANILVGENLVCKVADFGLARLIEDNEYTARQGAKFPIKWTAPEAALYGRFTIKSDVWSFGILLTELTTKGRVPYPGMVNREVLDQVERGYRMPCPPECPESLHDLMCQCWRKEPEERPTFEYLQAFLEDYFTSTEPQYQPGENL
Description: as §1, §2, §3

Sequence of c-RAF (P04049 whole entry): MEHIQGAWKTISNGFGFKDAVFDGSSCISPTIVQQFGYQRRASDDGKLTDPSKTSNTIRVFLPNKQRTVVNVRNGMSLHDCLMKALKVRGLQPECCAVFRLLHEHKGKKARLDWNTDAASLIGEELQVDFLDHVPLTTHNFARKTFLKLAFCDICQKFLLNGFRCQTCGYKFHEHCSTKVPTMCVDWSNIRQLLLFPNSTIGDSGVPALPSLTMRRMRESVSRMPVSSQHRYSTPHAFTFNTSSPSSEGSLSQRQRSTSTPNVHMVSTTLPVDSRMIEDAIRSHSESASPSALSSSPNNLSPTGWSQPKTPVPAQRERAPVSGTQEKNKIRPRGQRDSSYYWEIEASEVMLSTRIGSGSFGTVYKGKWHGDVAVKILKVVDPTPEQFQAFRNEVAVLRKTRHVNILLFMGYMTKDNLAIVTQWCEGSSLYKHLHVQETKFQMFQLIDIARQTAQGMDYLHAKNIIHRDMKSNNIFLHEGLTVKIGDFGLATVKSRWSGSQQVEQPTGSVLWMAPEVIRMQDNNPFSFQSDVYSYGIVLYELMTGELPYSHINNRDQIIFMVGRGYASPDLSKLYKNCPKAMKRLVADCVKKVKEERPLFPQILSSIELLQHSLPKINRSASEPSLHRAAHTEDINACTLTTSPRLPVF

Row | SMILES | IC50 [1] | IC50 [2] | IC50 [3] | IC50 [4] | IC50 [5] | IC50 [6]
1 | O=C(Nc1ccc(Oc2ncnc3[nH]ncc23)cc1)Nc1ccc(Cl)c(C(F)(F)F)c1 [4a-2] | 72 nM | 408 nM | < 10000 nM | < 10000 nM | < 10000 nM | < 10000 nM
2 | O=C(Nc1ccc(Oc2ncnc3[nH]ncc23)cc1)Nc1cccc(C(F)(F)F)c1 [4a-6] | 82 nM | 184 nM | 5 nM | 56 nM | 138 nM | 3010 nM
3 | CC(C)(C)c1cc(NC(=O)Nc2ccc(Oc3ncnc4[nH]ncc34)cc2)on1 [4a-25] | 53 nM | < 10000 nM | < 10000 nM | < 10000 nM | < 10000 nM | < 10000 nM
4 | CC(C)(C)c1cc(NC(=O)Nc2ccc(Oc3ncnc4[nH]ncc34)c(F)c2)no1 [4a-31] | 46 nM | < 10000 nM | < 10000 nM | < 10000 nM | < 10000 nM | < 10000 nM
